{
  "source": "patent US20240139154A1",
  "about": "“Methods of Reducing Risk of Prostate Cancer Progression” (Astellas Pharma Inc., priority 2021, published 2024)",
  "key": {"[1]": {"system": "low risk or intermediate risk prostate cancer", "assay": "ENACT study: biopsy outcomes (negative biopsies, percentage of cancer-positive cores) at 1 and 2 years", "format": "in vivo, human", "source_text": "This was followed by a one year follow up period, and a further continued follow-up period of at least one-year, until the last patient completed the 24-month visit.\n(§1) Secondary endpoints were (1) Incidence of negative biopsies for cancer at 1 year and 2 years; (2) percentage of cancer-positive cores at 1 year and 2 years; (3) time to PSA progression; and (4) incidence of a secondary rise in serum PSA at 1 year and 2 years. “PSA progression” is defined as a ≥25% increase in serum PSA from baseline, a ≥25% increase above nadir, or an absolute increase of ≥2 ng/mL.\n(§2) Secondary endpoint of incidence of negative biopsy for cancer was summarized using frequencies and percentages at one and two years by treatment groups. […] Analysis of time to PSA progression was performed using the same method used to analyze the primary endpoint. P-values were adjusted using the Bonferroni-Holm method to control type I error at 0.05 for selected secondary endpoints."}, "serum PSA": {"system": "serum PSA", "assay": "ENACT study: time to PSA progression and secondary rise in serum PSA", "format": "in vivo, human", "details": "for Hazard Ratio (95% CI), time to PSA progression: Cox regression", "procedure": "as §1, §2"}, "[2]": {"assay": "ENACT study: adverse events (safety set)", "format": "in vivo, human", "source_text": "The full analysis set (FAS) was the patients who were enrolled in the study and randomized to one or the other of the study arms. The safety set (SAF) was redefined in the Statistical Analysis Plan (SAP) to include only subjects who took the study drug. The FAS was 227 patients (113 in the active surveillance arm, 114 in the enzalutamide arm). The SAF had 112 subjects in the enzalutamide arm.\nAs expected, the incidence of Drug-Related Adverse Events (AEs) were reported in 92.0% (103/112) of the enzalutamide patients during the treatment period plus 30 days. Of the patients on active surveillance, 54.9% (62/113) experienced an adverse event from randomization until date completed 12 months on study plus 30 days. The most common Drug-Related AE seen in the enzalutamide group was fatigue (52.7%). Adverse events which occurred in ≥3.5% of enzalutamide patients were fatigue (55.4%), gynecomastia (36.6%), nipple pain (30.4%), breast tenderness (25.9%), and erectile dysfunction (17.9%). The only AE that occurred in ≥3.5% of the patients on active surveillance was hypertension (7.1%). […] Observed AE data were consistent with the known safety profile of enzalutamide."}, "[3]": {"system": "low risk or intermediate risk prostate cancer", "details": "for Hazard Ratio (95% CI), time to prostate cancer progression: enzalutamide/AS, Cox regression, HR<1 favors enzalutamide"}, "[4]": {"assay": "ENACT study: adverse events (safety set)", "format": "in vivo, human", "details": "During 1-year continued follow-up period, n = 112"}},
  "note": "Read-outs that look alike come from different tables or passages of the source.",
  "data": [
    {"smiles": "CNC(=O)c1ccc(N2C(=S)N(c3ccc(C#N)c(C(F)(F)F)c3)C(=O)C2(C)C)cc1F", "note": "[enzalutamide, Enzalutamide]", "values": [
      {"measurement": "Percentage of cancer-positive cores at 1 year, LS mean change from baseline ± SE", "setting": "[1]; 1 year, n = 90", "result": "−12.97 ± 1.99", "unit": "%"},
      {"measurement": "Biopsy result at 1 year: Positive, %", "setting": "[1]; 1 year, n = 114", "result": "(46.5) %"},
      {"measurement": "Biopsy result at 1 year: Unknown, %", "setting": "[1]; 1 year, n = 114", "result": "(18.4) %"},
      {"measurement": "Incidence of negative biopsy at 1 year: Negative, %", "setting": "[1]; 1 year, n = 114", "result": 35.1, "unit": "%"},
      {"measurement": "Percentage of cancer-positive cores at 2 years, LS mean change from baseline ± SE", "setting": "[1]; 2 years, n = 53", "result": "−6.68 ± 2.37", "unit": "%"},
      {"measurement": "Biopsy result at 2 years: Positive, %", "setting": "[1]; 2 years, n = 100", "result": "(47.0) %"},
      {"measurement": "Biopsy result at 2 years: Unknown, %", "setting": "[1]; 2 years, n = 100", "result": "(34.0) %"},
      {"measurement": "Incidence of negative biopsy at 2 years: Negative, %", "setting": "[1]; 2 years, n = 100", "result": 19.0, "unit": "%"},
      {"measurement": "reduction in the mean percentage of cancer-positive cores within the enzalutamide arm", "setting": "[1]; between baseline and year two", "result": 6.7, "unit": "%"},
      {"measurement": "Percentage of cancer-positive cores at 1 year, Difference in LS means ± SE", "setting": "[1]; enzalutamide vs AS, 1 year", "result": "−10.07 ± 2.40", "unit": "%"},
      {"measurement": "Percentage of cancer-positive cores at 2 years, Difference in LS means ± SE", "setting": "[1]; enzalutamide vs AS, 2 years", "result": "−5.15 ± 3.17", "unit": "%"},
      {"measurement": "OR (95% CI), negative biopsy at 1 year", "setting": "[1]; enzalutamide vs AS, exact logistic regression, 1 year", "result": "3.5 (1.76, 6.92)"},
      {"measurement": "OR (95% CI), negative biopsy at 2 years", "setting": "[1]; enzalutamide vs AS, exact logistic regression, 2 years", "result": "1.6 (0.66, 4.00)"},
      {"measurement": "OR (95% CI), negative biopsy at 2 years", "setting": "[1]; enzalutamide vs AS, exact logistic regression, 2 years, listed as Enzalutamide", "result": "1.6 (0.66, 4.00)"},
      {"measurement": "likelihood of a negative biopsy at one year compared to the control population", "setting": "[1]; one year", "result": "at least three times more likely"},
      {"measurement": "Incidence of a secondary rise in serum PSA at 1 year, PSA response, %", "setting": "serum PSA; 1 year, n = 114", "result": "(24.6) %"},
      {"measurement": "Incidence of a secondary rise in serum PSA at 2 years, PSA response, %", "setting": "serum PSA; 2 years, n = 100", "result": "(92.0) %"},
      {"measurement": "Median Time to PSA Progression (95% CI)", "setting": "serum PSA; FAS, Kaplan-Meier", "result": 14.82},
      {"measurement": "No. Censored (time to PSA progression), %", "setting": "serum PSA; FAS, N = 114", "result": 15.8, "unit": "%"},
      {"measurement": "No. of Events (PSA progression), %", "setting": "serum PSA; FAS, N = 114", "result": 84.2, "unit": "%"},
      {"measurement": "OR (95% CI), secondary rise in serum PSA at 1 year", "setting": "serum PSA; enzalutamide vs AS, 1 year", "result": "0.1 (0.08, 0.26)"},
      {"measurement": "OR (95% CI), secondary rise in serum PSA at 2 years", "setting": "serum PSA; enzalutamide vs AS, 2 years", "result": "1.1 (0.37, 3.53)"},
      {"measurement": "Hazard Ratio (95% CI), time to PSA progression", "setting": "serum PSA; enzalutamide vs AS, FAS", "result": "0.714 (0.525, 0.972)"},
      {"measurement": "Hazard Ratio (95% CI), time to PSA progression", "setting": "serum PSA; enzalutamide vs AS, FAS, listed as Enzalutamide", "result": "0.71 (0.53, 0.97)"},
      {"measurement": "Time to PSA progression, Median (95% CI)", "setting": "serum PSA; n = 114", "result": 14.8, "unit": "months"},
      {"measurement": "PSA rebound following cessation of treatment", "setting": "serum PSA; observed at month 15 onwards", "result": "PSA rebound was demonstrated"},
      {"measurement": "delay of PSA progression", "setting": "serum PSA; versus AS", "result": 6, "unit": "months"},
      {"measurement": "AEs leading to death, %", "setting": "[2]; During 1-year treatment period, n = 112", "result": 0.9, "unit": "%"},
      {"measurement": "most common Drug-Related AE: fatigue", "setting": "[2]; human, in vivo", "result": 52.7, "unit": "%"},
      {"measurement": "Drug-related AEs leading to discontinuation of study drug, %", "setting": "[2]; human, in vivo, 1 year", "result": 7.1, "unit": "%"},
      {"measurement": "Drug-related AEs ≥ grade 3, %", "setting": "[2]; human, in vivo, 1 year", "result": 5.4, "unit": "%"},
      {"measurement": "Drug-related AEs, %", "setting": "[2]; human, in vivo, 1 year", "result": 88.4, "unit": "%"},
      {"measurement": "Drug-related SAEs, %", "setting": "[2]; human, in vivo, 1 year", "result": 2.7, "unit": "%"},
      {"measurement": "TEAEs ≥ grade 3, %", "setting": "[2]; human, in vivo, 1 year", "result": 9.8, "unit": "%"},
      {"measurement": "Adverse Event: Alopecia, %", "setting": "[2]; human, in vivo, 12 months", "result": "(9.8%)"},
      {"measurement": "Adverse Event: Hypertension, %", "setting": "[2]; human, in vivo, 12 months", "result": "(7.1%)"},
      {"measurement": "Adverse Event: Libido Decreased, %", "setting": "[2]; human, in vivo, 12 months", "result": "(8.0%)"},
      {"measurement": "tolerability of enzalutamide monotherapy", "setting": "[2]; in vivo", "result": "well-tolerated"},
      {"measurement": "Median Progression Free Survival / median time to pathological or therapeutic prostate cancer progression", "setting": "[3]; FAS, Kaplan-Meier, NR = not reached", "result": "not reached"},
      {"measurement": "No. Censored (progression free survival), %", "setting": "[3]; FAS, N = 114", "result": 71.9, "unit": "%"},
      {"measurement": "No. of Events (prostate cancer progression), %", "setting": "[3]; FAS, N = 114, 160 mg/day", "result": 28.1, "unit": "%"},
      {"measurement": "reduction in risk of prostate cancer progression", "setting": "[3]; compared to patients on active surveillance", "result": 46, "unit": "%"},
      {"measurement": "Hazard Ratio (95% CI), time to prostate cancer progression", "setting": "[3]; FAS", "result": "0.542 (0.330, 0.892)"},
      {"measurement": "Hazard Ratio (95% CI), time to prostate cancer progression", "setting": "[3]; FAS, listed as Enzalutamide", "result": "0.54 (0.33, 0.89)"},
      {"measurement": "AEs leading to death, %", "setting": "[4]", "result": 1.8, "unit": "%"}
    ]}
  ]
}
